Laboratory results: publication PMC6045421 (ACS Omega, 2018)
pIC50: −log10 of the molar value. “Also recorded” adds a separate entry of the source.

Experiments:
[1] = target: recombinant human IRAP (Homo sapiens, UniProt Q9UIQ6); format: biochemical; details: HEK293
[2] = test system: aminopeptidase N (APN); details: cited from earlier work
[3] = test system: leukotriene A4 hydrolase (LTA4H); details: cited from earlier work
[4] = test system: IRAP from Chinese hamster ovary (CHO) cells; details: read-out: IC50 in CHO cells, hamster enzyme; cited from earlier work
[5] = test system: primary hippocampal neuron cultures; details: primary hippocampal neuron cultures from mice; cited from earlier work
[6] = Stability in human liver microsomes; format: in vitro ADME; details: HLM and MLM

recombinant human IRAP, sequence (Q9UIQ6 whole entry): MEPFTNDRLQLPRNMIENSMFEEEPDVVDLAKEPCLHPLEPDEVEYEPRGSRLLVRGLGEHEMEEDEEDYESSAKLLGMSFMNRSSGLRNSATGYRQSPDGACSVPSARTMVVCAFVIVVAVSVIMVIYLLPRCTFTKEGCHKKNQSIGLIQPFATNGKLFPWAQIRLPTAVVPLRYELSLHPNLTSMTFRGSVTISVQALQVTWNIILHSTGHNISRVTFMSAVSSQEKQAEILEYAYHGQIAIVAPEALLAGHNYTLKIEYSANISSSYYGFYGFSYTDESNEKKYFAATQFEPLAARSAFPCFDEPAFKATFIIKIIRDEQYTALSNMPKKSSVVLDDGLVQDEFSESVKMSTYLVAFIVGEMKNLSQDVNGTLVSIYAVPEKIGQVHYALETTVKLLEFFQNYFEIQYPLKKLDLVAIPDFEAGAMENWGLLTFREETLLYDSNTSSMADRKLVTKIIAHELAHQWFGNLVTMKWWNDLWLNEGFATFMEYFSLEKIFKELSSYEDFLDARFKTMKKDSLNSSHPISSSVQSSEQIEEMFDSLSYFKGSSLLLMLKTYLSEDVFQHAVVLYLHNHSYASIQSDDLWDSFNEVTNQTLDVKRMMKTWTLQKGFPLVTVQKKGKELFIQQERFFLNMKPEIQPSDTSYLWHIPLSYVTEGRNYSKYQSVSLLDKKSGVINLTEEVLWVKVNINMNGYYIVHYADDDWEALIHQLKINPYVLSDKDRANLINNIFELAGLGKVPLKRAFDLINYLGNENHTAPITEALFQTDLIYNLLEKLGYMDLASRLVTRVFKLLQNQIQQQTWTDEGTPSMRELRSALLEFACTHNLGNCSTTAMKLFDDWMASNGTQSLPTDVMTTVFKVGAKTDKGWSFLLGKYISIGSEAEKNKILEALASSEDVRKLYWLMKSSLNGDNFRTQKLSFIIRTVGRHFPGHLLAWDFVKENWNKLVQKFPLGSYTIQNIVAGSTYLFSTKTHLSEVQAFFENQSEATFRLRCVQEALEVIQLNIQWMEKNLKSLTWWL

SMILES	IRAP inhibition (in words) [1]	inhibition of APN relative to IRAP (in words) [2]	inhibition of LTA4H relative to IRAP (in words) [3]	pIC50 [4]	density of dendritic spines (in words) [5]	stability in the microsome assays (in words) [6]
O=C(Nc1cccc(-c2nnn[nH]2)c1)c1cc(Br)c(Cl)s1 [Compound 12]	complete lack of inhibitory activity					
O=S(=O)(Nc1cccc(-c2nnn[nH]2)c1)c1cc(Cl)c(Cl)s1 [Compound 13]	submicromolar activity					
O=S(=O)(Nc1cccc(-c2nnn[nH]2)c1)c1ccc(-c2ccccc2)cc1 [Compound 20]	totally inactive					
O=S(=O)(Nc1cccc(-c2nnn[nH]2)c1)c1ccc(Cl)c2nonc12 [Compound 21]	submicromolar	much lower efficacy	much lower efficacy			
Cc1ccc(S(=O)(=O)Nc2cccc(-c3nnn[nH]3)c2)cc1C [Compound 25]	submicromolar potency	much lower efficacy	much lower efficacy	5.51	enhance the density of dendritic spines	
O=S(=O)(Nc1cccc(-c2nnn[nH]2)c1)c1cc(Cl)c(Cl)cc1Cl [Compound 26]	submicromolar potency	much lower efficacy	much lower efficacy	5.54	enhance the density of dendritic spines	
O=S(=O)(Nc1cccc(-c2nnn[nH]2)c1)c1cc(C(F)(F)F)ccc1C(F)(F)F [Compound 29, N-(3-(1H-Tetrazol-5-yl)phenyl)-2,5-bis(trifluoromethyl)benzenesulfonamide]	submicromolar potency; also recorded: submicromolar affinity					high metabolic stability
